Measurements: article PMC6238539, “Discovery of a cofactor-independent inhibitor of Mycobacterium tuberculosis InhA” (Life Science Alliance, 2018)
Values after ≈ are worked out from the molar mass of the structure shown. Read-outs that look alike come from different tables or passages of the source.

What was measured:
M. tuberculosis InhA [1] = molecular target: T1, M. tuberculosis InhA (Mycobacterium tuberculosis, UniProt P9WGR1); test: biochemical; type: binding
in vivo = conditions: female; for AUC(0-t): AUClast
M. tuberculosis H37Rv [2] = test: microbe, parasite or virus in culture; type: cell-based, Mycobacterium tuberculosis; conditions: Mycobacterium tuberculosis, H37RV; whole-cell M. tuberculosis
[3] = for Ratio Plasma AUC0-last / Dose / Ratio Plasma Cmax/Dose: C57Bl/6 mice
in vitro [4] = type: cell-based; conditions: human; read-out: HepG2 cytotoxicity IC50
Protocol: HepG2 human liver cells (ATCC HB 8065) were propagated in DMEM containing either 25 mM glucose or 10 mM galactose plus 10% vol/vol FBS, 1 mM sodium pyruvate, 2 mM Corning glutagro, 100 U/ml penicillin, and 100 μg/ml streptomycin. The cells were seeded in 384-well plates at 1,800 cells per well and incubated in a humidified incubator at 37°C, 5% CO2. Compounds were solubilized in DMSO and assayed using a 10-point threefold serial dilution. Compounds were added 24 h post cell seeding to a final assay concentration of 1% DMSO and highest compound concentration of 100 μM. The cells were incubated for 72 h and viability measured using CellTiter-Glo reagent (Promega) and reading RLU. Growth inhibition curves were fitted using the Levenberg–Marquardt algorithm. The IC50 was defined as the compound concentration that produced 50% of the inhibitory response against HepG2 cells.

in vitro [5] = conditions: human
M. tuberculosis InhA [6] = molecular target: T1, M. tuberculosis InhA; test: InhA in vitro inhibition assay; type: biochemical
M. tuberculosis H37Rv [7] = test: Kill kinetics under replicating conditions; type: cell-based, Mycobacterium tuberculosis
[8] = test system: M. tuberculosis Erdman TMCC 107; test: microbe, parasite or virus in culture; type: cell-based; conditions: Mycobacterium tuberculosis, read-out: potency (MIC) against M. tuberculosis Erdman TMCC 107
M. tuberculosis Erdman [9] = type: in vivo, Mycobacterium tuberculosis; conditions: for reduction in M. tuberculosis lung burdens / reduction in M. tuberculosis spleen burdens: 9-d treatment; for Mean ± SEM Log10 CFU: dose escalation study (Table S4), day 22
M. tuberculosis Erdman [10] = type: in vivo, Mycobacterium tuberculosis; conditions: 100 mg/kg
[11] = human serum
[12] = mouse plasma
[13] = test system: intracellular M. tuberculosis in THP-1 cells; test: microbe, parasite or virus in culture; type: cell-based; conditions: Mycobacterium tuberculosis
[14] = BALB/c, mouse, po, 10 mg/kg, BALB/c (infected) mice, oral 10 mg/kg QD-3 wk, plasma
[15] = BALB/c, mouse, po, 50 mg/kg, BALB/c (infected) mice, oral 50 mg/kg QD-3 wk, plasma
[16] = C57BL/6, mouse, po, 10 mg/kg, C57Bl/6 mice, oral 10 mg/kg QD-4 days, plasma
[17] = C57BL/6, mouse, po, 10 mg/kg, C57Bl/6 mice, oral 10 mg/kg QD-4 days, lung
[18] = C57BL/6, mouse, po, 25 mg/kg, C57Bl/6 mice, oral 25 mg/kg QD-4 days, plasma
[19] = C57BL/6, mouse, po, 25 mg/kg, C57Bl/6 mice, oral 25 mg/kg QD-4 days, lung
[20] = C57BL/6, mouse, po, 50 mg/kg, C57Bl/6 mice, oral 50 mg/kg QD-4 days, plasma
[21] = C57BL/6, mouse, po, 50 mg/kg, C57Bl/6 mice, oral 50 mg/kg QD-4 days, lung
[22] = CD-1, mouse, iv, 5 mg/kg, CD-1 mice, IV 5 mg/kg, single dose, plasma
[23] = CD-1, mouse, po, 10 mg/kg, CD-1 mice, oral 10 mg/kg, single dose, lung
[24] = CD-1, mouse, po, 10 mg/kg, CD-1 mice, oral 10 mg/kg, single dose, plasma

T1 sequence (P9WGR1 whole entry, looked up): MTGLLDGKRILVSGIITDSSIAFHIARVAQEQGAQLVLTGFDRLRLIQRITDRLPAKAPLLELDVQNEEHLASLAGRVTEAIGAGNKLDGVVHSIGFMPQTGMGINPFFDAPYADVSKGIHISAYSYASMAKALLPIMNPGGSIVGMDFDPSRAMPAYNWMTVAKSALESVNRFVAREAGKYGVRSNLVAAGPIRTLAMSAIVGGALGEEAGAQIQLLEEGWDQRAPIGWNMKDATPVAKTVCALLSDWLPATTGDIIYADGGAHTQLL

## CCS(=O)(=O)N1N=Cc2ccc(Oc3ccc(C(F)(F)F)cc3/C=N/O)cc2B1O [AN12855]
M. tuberculosis InhA [1]; cofactor: None
  Kd: 77 nM
  N (stoichiometry of binding): 0.58 ± 0.014
  ∆H: −17,740 ± 607 cal/mol
  ∆S: −27 cal/mol/deg
M. tuberculosis InhA [1]; in the presence of NADH
  binding to InhA: unable to bind
In vivo; BALB/c, mouse, po, 10 mg/kg
  AUC(0-inf): 29000 ng·h/mL
  half-life: 182 min
In vivo; [14]
  AUC(0-t): 28900 ng·h/mL
  Cmax: 8360 ng/mL
  Tmax: 30 min
In vivo; BALB/c, mouse, po, 50 mg/kg
  AUC(0-inf): 192000 ng·h/mL
  half-life: 144 min
In vivo; [15]
  AUC(0-t): 192000 ng·h/mL
  Cmax: 61600 ng/mL
  Tmax: 30 min
In vivo; C57BL/6, mouse, po, 10 mg/kg
  AUC(0-inf): 19700 ng·h/mL
  half-life: 150 min
In vivo; [16]
  AUC(0-t): 17600 ng·h/mL
  Cmax: 5790 ng/mL
  Tmax: 30 min
In vivo; [17]
  Cmax: 584 ng/mL
  Tmax: 300 min
In vivo; C57BL/6, mouse, po, 10 mg/kg, Ratio (Lung / Plasma) @ 5 hr, C57Bl/6 mice, oral 10 mg/kg QD-4 days
  Kp: 0.39
In vivo; C57BL/6, mouse, po, 10 mg/kg, Ratio (Lung / Plasma) @ 8 hr, C57Bl/6 mice, oral 10 mg/kg QD-4 days
  Kp: 0.51
In vivo; C57BL/6, mouse, po, 25 mg/kg
  AUC(0-inf): 59000 ng·h/mL
  half-life: 211 min
In vivo; [18]
  AUC(0-t): 46800 ng·h/mL
  Cmax: 12600 ng/mL
  Tmax: 30 min
In vivo; [19]
  Cmax: 1900 ng/mL
  Tmax: 300 min
In vivo; C57BL/6, mouse, po, 25 mg/kg, Ratio (Lung / Plasma) @ 5 hr, C57Bl/6 mice, oral 25 mg/kg QD-4 days
  Kp: 0.48
In vivo; C57BL/6, mouse, po, 25 mg/kg, Ratio (Lung / Plasma) @ 8 hr, C57Bl/6 mice, oral 25 mg/kg QD-4 days
  Kp: 0.49
In vivo; C57BL/6, mouse, po, 50 mg/kg
  AUC(0-inf): 109000 ng·h/mL
  half-life: 226 min
In vivo; [20]
  AUC(0-t): 82400 ng·h/mL
  Cmax: 14900 ng/mL
  Tmax: 30 min
In vivo; [21]
  Cmax: 3500 ng/mL
  Tmax: 300 min
In vivo; C57BL/6, mouse, po, 50 mg/kg, Ratio (Lung / Plasma) @ 5 hr, C57Bl/6 mice, oral 50 mg/kg QD-4 days
  Kp: 0.36
In vivo; C57BL/6, mouse, po, 50 mg/kg, Ratio (Lung / Plasma) @ 8 hr, C57Bl/6 mice, oral 50 mg/kg QD-4 days
  Kp: 0.47
In vivo; CD-1, mouse
  half-life: 210 min
In vivo; CD-1, mouse, iv, 5 mg/kg
  AUC(0-inf): 14400 ng·h/mL
  MRT inf: 3.64 h
  Vd: 1.27 L/kg
  clearance: 5.8 mL/min/kg
  half-life: 208 min
In vivo; [22]
  AUC(0-t): 14300 ng·h/mL
  Cmax: 6320 ng/mL
In vivo; CD-1, mouse, po, 10 mg/kg
  AUC(0-inf): 15500 ng·h/mL
  bioavailability: 53%
  half-life: 196 min
In vivo; [23]
  AUC(0-t): 10400 ng·h/mL
  Cmax: 1020 ng/mL
  Tmax: 240 min
In vivo; [24]
  AUC(0-t): 15400 ng·h/mL
  Cmax: 1740 ng/mL
  Tmax: 30 min
M. tuberculosis H37Rv [2]
  IC90: 90 ± 50 nM
[3]; oral 10 mg/kg QD-4 days
  Ratio Plasma AUC0-last / Dose: 1.8
  Ratio Plasma Cmax/Dose: 0.58
[3]; oral 25 mg/kg QD-4 days
  Ratio Plasma AUC0-last / Dose: 1.9
  Ratio Plasma Cmax/Dose: 0.5
[3]; oral 50 mg/kg QD-4 days
  Ratio Plasma AUC0-last / Dose: 1.6
  Ratio Plasma Cmax/Dose: 0.3
[3]; CD-1 mice, oral 10 mg/kg
  total lung exposure lower than plasma AUC: 33%
In vitro [4]
  IC50: > 100 µM
In vitro [5]
  IC50: > 50 µM
M. tuberculosis InhA [6]
  IC50: 30 nM
M. tuberculosis H37Rv [7]
  bactericidal activity: concentration-dependent bactericidal activity
M. tuberculosis H37Rv [7]; replicating conditions, 10× the IC90
  time to reach the limit of detection: 7 days
[8]; with 4% human serum albumin
  MIC: 2.3 µM (≈ 1.01 µg/mL)
[8]; without human serum albumin
  MIC: 0.28 µM (≈ 0.124 µg/mL)
M. tuberculosis Erdman [9]; 10 mg/kg
  reduction in M. tuberculosis lung burdens: 2.3 log10
  reduction in M. tuberculosis spleen burdens: 2.1 log10
M. tuberculosis Erdman [9]; 25 mg/kg
  reduction in M. tuberculosis lung burdens: 2.7 log10
  reduction in M. tuberculosis spleen burdens: 3.2 log10
M. tuberculosis Erdman [9]; 50 mg/kg
  reduction in M. tuberculosis lung burdens: 3.7 log10
  reduction in M. tuberculosis spleen burdens: 3.6 log10
M. tuberculosis Erdman [9]; lung, 50 mg/kg
  Mean ± SEM Log10 CFU: 5.8 ± 0.05 Log10 CFU
M. tuberculosis Erdman [9]; lung, 100 mg/kg
  Mean ± SEM Log10 CFU: 5.0 ± 0.13 Log10 CFU
M. tuberculosis Erdman [9]; lung, 200 mg/kg
  Mean ± SEM Log10 CFU: 5.6 ± 0.06 Log10 CFU
M. tuberculosis Erdman [9]; organ Lung, 50 mg/kg
  Mean ± SEM Log10 CFU: 2.5 ± 0.24 Log10 CFU
M. tuberculosis Erdman [9]; organ Lung, 100 mg/kg
  Mean ± SEM Log10 CFU: 2.5 ± 0.05 Log10 CFU
M. tuberculosis Erdman [9]; organ Lung, 200 mg/kg
  Mean ± SEM Log10 CFU: 3.0 ± 0.10 Log10 CFU
M. tuberculosis Erdman [10]; 2 weeks of treatment
  reduction in lung burdens: 0.47 log10 CFU
M. tuberculosis Erdman [10]; 4 weeks of treatment
  reduction in lung burdens: 0.81 log10 CFU
M. tuberculosis Erdman [10]; 8 weeks of treatment
  reduction in lung burdens: 1.73 log10 CFU
  reduction in spleens: more than three log10 reductions
[11]
  protein bound: 88%
[12]
  protein bound: 98.5%
[13]
  IC50: 21 ± 3 nM
  IC90: 40 ± 10 nM
